SMILES strings stand for the structures.

Data set [1] relates to CD-1 mice. Briefly: Gait analysis (Digigait). The settings on record: SG-fed vs control. In kind it is in vivo. The protocol:
Five-month old male CD-1 mice (30.1-35.7 g, 7.5 cm - 8.8 cm) were purchased from Charles River (Wilmington, MA). Adult mice were chosen to mimic the mean age of onset of ALS-PDC (Kurland, 1988; Kurland et al., 1994). Thirty mice for the SG study were randomly divided into 2 groups (14 control and 16 experimental animals). All animals were housed singly in a virus-free barrier facility in a room maintained at 22°C under a 12 hour light/dark cycle. The mice were provided ad libitum access to food and water.
(§1) The synthetic SG was mixed with finely ground Purina Chow mouse pellets (Mouse Diet™, Purina) to create the experimental pellets with a SG content of 1000 µg per pellet. Dry materials were blended with a sterile silicon spatula. For every 5 g of standard feed, 2.5 mL of doubly-distilled water (dd)H2O was added and the dough was kneaded and round up into pellets. A single sterol glucoside containing pellet was placed in the feeding tray each morning before the addition of regular mouse chow (ad libitum). All experimental pellets were entirely consumed by the mice each day. Control mice were fed standard mouse chow pellets of identical weight with no additives. SG feeding was conducted daily for 15 weeks and mice were behaviorally monitored until sacrifice at 35 weeks (time point 1) or 52 weeks (time point 2).
Gait analysis: In order to examine spatial and temporal indices of front and hind limb stepping patterns during forward locomotion, mice were required to run on a colorless (PVC and polycarbonate), straight, level, walled motorized belt (Digigait™, treadmill motor: DC, HP; torque 45 1b-in, Mouse Specifics, Inc., Boston, MA, USA) set at 30 rpm with a no-flicker light source (90-250 VAC; 25 kHZ, Mouse Specifics, Inc., Boston, MA, USA) and camera mounted ventrally (relative to the animal) to facilitate continuous ventral plane videography (up to 150 frames per second) of activity. Gait indices were analyzed with the complementary digital imaging software (Digigait™, Mouse Specifics, Inc., Boston, MA, USA) as per manufacturer's instructions. Briefly, the software converts "paw prints" into a digital signal and generates a temporal record of paw placement and breaks down the digital file into three main parameters: stride duration, swing duration, and stance duration. The stance duration is the period during which the paw of a limb is in contact with the belt surface. The software further subdivides the stance duration into two components: braking duration (the increase in paw contact area over a discrete time interval) and propulsion duration (the decrease in paw contact area over a discrete time interval). The swing duration is the period of time that a paw is not in contact with the belt surface. In addition to these factors, over a dozen additional characteristics, including stance factor, step-sequence pattern, propulsion, and cadence are generated to provide a spreadsheet format report of twenty-five gait indices.

Data set [2] has as its system Ionized calcium-binding adaptor molecule-1. Nature of the data set: IBA-1 immunofluorescence (microglia proliferation). In kind it is in vivo, CD-1 mice. The settings on record: SG-fed group over time, 35 to 52 wk. The protocol:
as §1
Tissue-mounted slides were processed for fluorescence microscopy as follows: Sections were rinsed in coplin jars for 45 minutes at room temperature (RT) in three changes of PBS. Sections were then incubated at RT for 30 minutes in a blocking permeabilization solution made of 5% normal goat serum (NGS), 5% normal rabbit serum (NRS) or 5% BlokHen II (Aves Labs, Inc., Tigard, OR), 0.05% Triton X-100 and PBS. Subsequently, the blocking solution was tipped off and the slides were rinsed in PBS for 2 minutes. […]

In the case of `CCC(C=CC(C)C1CCC2C3CC=C4CC(OC5OC(CO)C(O)C(O)C5O)CCC4(C)C3CCC12C)C(C)C` (stereo not drawn) [SG], in data set [1] (time-point 1, 35 wk), the Forelimb braking result was “Forelimb braking (ns)”, the Forelimb propulsion entry is “Forelimb propulsion (ns)”, the Forelimb stance width result is “Forelimb stance width (ns)” and the Forelimb stride length entry is “Forelimb stride length (ns)”. Also, in data set [1] (time-point 1, 35 wk), the Hind limb braking result is listed as “Hind limb braking (ns)”, the Hind limb propulsion entry is recorded as “Hind limb propulsion (ns)”, the “Hind limb stance width” value is “Hind limb stance width (ns)” and the “Hind limb stride frequency” value is “Hind limb stride frequency (ns)”. For the same compound, in data set [1] (time-point 1, 35 wk), the “Hind limb stride length” value is on record as “Hind limb stride length (ns)”. Also, in data set [1] (time-point 2, 52 wk), the Forelimb braking entry is on record as “Forelimb braking* (*p<0.05)”, the Forelimb propulsion entry was “Forelimb propulsion* (*p<0.05)”, the Hind limb braking result is listed as “Hind limb braking* (*p<0.05)” and the Hind limb propulsion entry is “Hind limb propulsion* (*p<0.05)”. Moreover, the “Hind limb stride frequency” value in data set [1] (time-point 2, 52 wk) is given as “Hind limb stride frequency* (*p<0.05)”. In addition, in data set [2], the Anti-IBA-1 immunoreactive cells result is “Anti-IBA-1 immunoreactive cells (SG-fed group over time) (ns)”.

The values above are taken from patent EP2181589A1, “Neurotoxic sterol glycosides” (Shaw, Christopher Ariel, priority 2008, dated 2010).
